Experimental findings from ChEMBL document CHEMBL4004821, “Design and synthesis of novel tetrandrine derivatives as potential anti-tumor agents against human hepatocellular carcinoma” (Eur J Med Chem, 2017) are described below.

For orientation: IC50 means the concentration that inhibits the measured activity by half.

Test [1] has as its system PLC-PRF-5. As to the kind of experiment: Cytotoxicity against human PLC/PRF/5 cells assessed as decrease in cell viability at 1.25 to 2.5 uM after 24 hrs in presence of endoplasmic reticulum stress reliever TUDCA by MTT assay. Type of test: functional, cell-based. (In general: Tetrazolium assays rely on reduction of a dye to a coloured formazan, in cell work by metabolically active cells.)

The subject of test [2] is PLC-PRF-5. Description: Induction of endoplasmic reticulum stress in human PLC/PRF/5 cells assessed as upregulation of ATF4 gene expression at 1.25 to 2.5 uM after 24 hrs by qRT-PCR method. Type of test: functional, cell-based.
Test [3] concerns PLC-PRF-5. Description: Cell cycle arrest in human PLC/PRF/5 cells assessed as accumulation at G0/G1 phase at 1.25 to 2.5 uM after 24 hrs by propidium iodide staining-based flow cytometric method (reference value: 69.17%). Type of test: functional. Background: In flow cytometry, cells or beads pass a laser one at a time.
Test [4] concerns PLC-PRF-5. As to the kind of experiment: Potency index, ratio of tetrandrine IC50 to test compound IC50 for human PLC/PRF/5 cells. Type of test: functional.
Test [5] relates to PLC-PRF-5. Description: Potency index, ratio of sorafenib IC50 to test compound IC50 for human PLC/PRF/5 cells. Type of test: functional.
The nature of test [6]: Potency index, ratio of tetrandrine IC50 to test compound IC50 for human MHCC97L cells. Type of test: functional.
For test [7], the target named is T1, c-Jun N-terminal kinase, JNK (Homo sapiens) (UniProt P45983+P53779+P45984). Description: Induction of JNK phosphorylation in human PLC/PRF/5 cells at 1.25 to 2.5 uM after 24 hrs by immunoblot method. Type of test: cell-based. A general note: Immunoblotting shows a protein as a band on a membrane.
In test [8] the test system is PLC-PRF-5. Description: Cytotoxicity against human PLC/PRF/5 cells assessed as growth inhibition after 24 hrs by MTT assay. Type of test: functional, cell-based. The following applies: PLC-PRF-5, 24 h.
The subject of test [9] is PLC-PRF-5. As to the kind of experiment: Cytotoxicity against human PLC/PRF/5 cells assessed as decrease in cell viability at 1.25 to 2.5 uM after 24 hrs in presence of necrosis inhibitor necrostatin-1 by MTT assay. Type of test: functional, cell-based.
In test [10] the test system is PLC-PRF-5. As to the kind of experiment: Induction of endoplasmic reticulum stress in human PLC/PRF/5 cells assessed as upregulation of GRP78 gene expression at 1.25 to 2.5 uM after 24 hrs by qRT-PCR method. Type of test: functional, cell-based.
A short description of test [11]: Cell cycle arrest in human MHCC97L cells assessed as accumulation at G2/M phase at 1.25 to 2.5 uM after 24 hrs by propidium iodide staining-based flow cytometric method (reference value: 20.60%). Type of test: functional.
In test [12] the test system is PLC-PRF-5. Description: Induction of endoplasmic reticulum stress in human PLC/PRF/5 cells at 1.25 to 2.5 uM after 24 hrs by ER tracker red staining-based fluorescence microscopic method. Type of test: functional, cell-based.
A short description of test [13]: Cell cycle arrest in human MHCC97L cells assessed as accumulation at G0/G1 phase at 1.25 to 2.5 uM after 24 hrs by propidium iodide staining-based flow cytometric method (reference value: 65.24%). Type of test: functional.
Test [14] relates to PLC-PRF-5. Description: Induction of apoptosis in human PLC/PRF/5 cells assessed as late apoptotic cells at 1.25 to 2.5 uM after 24 hrs by annexin V/7-AAD staining-based flow cytometric method (reference value: 2.66%). Type of test: functional.
Test [15] can be described thus: Potency index, ratio of sorafenib IC50 to test compound IC50 for human MHCC97L cells. Type of test: functional.
The test system of test [16] is PLC-PRF-5. As to the kind of experiment: Cell cycle arrest in human PLC/PRF/5 cells assessed as accumulation at S phase at 1.25 to 2.5 uM after 24 hrs by propidium iodide staining-based flow cytometric method (reference value: 20.73%). Type of test: functional.
Test [17] deals with MHCC97L. As to the kind of experiment: Induction of endoplasmic reticulum stress in human MHCC97L cells at 1.25 to 2.5 uM after 24 hrs by ER tracker red staining-based fluorescence microscopic method. Type of test: functional, cell-based.
In test [18] the test system is PLC-PRF-5. As to the kind of experiment: Cytotoxicity against human PLC/PRF/5 cells assessed as decrease in cell viability at 1.25 to 2.5 uM after 24 hrs in presence of caspase inhibitor Z-vad-fmk by MTT assay. Type of test: functional, cell-based.
The nature of test [19]: Induction of apoptosis in human MHCC97L cells assessed as necrotic cells at 1.25 to 2.5 uM after 24 hrs by annexin V/7-AAD staining-based flow cytometric method (reference value: 3.44%). Type of test: functional.
The test system of test [20] is PLC-PRF-5. Description: Cell cycle arrest in human PLC/PRF/5 cells assessed as accumulation at G2/M phase at 1.25 to 2.5 uM after 24 hrs by propidium iodide staining-based flow cytometric method (reference value: 18.18%). Type of test: functional.
Test [21] can be described thus: Induction of apoptosis in human MHCC97L cells assessed as early apoptotic cells at 1.25 to 2.5 uM after 24 hrs by annexin V/7-AAD staining-based flow cytometric method (reference value: 0.601%). Type of test: functional.
The test system of test [22] is PLC-PRF-5. Description: Cytotoxicity against human PLC/PRF/5 cells assessed as decrease in cell viability at 1.25 to 2.5 uM after 24 hrs in presence of JNK inhibitor SP600125 by MTT assay. Type of test: functional, cell-based.
Test [23] in a line: Cytotoxicity against human MHCC97L cells assessed as growth inhibition after 24 hrs by MTT assay. Type of test: functional, cell-based.
The target of test [24] is T1, c-Jun N-terminal kinase, JNK (Homo sapiens). Description: Induction of JNK activation in human PLC/PRF/5 cells assessed as increase in caspase 3 cleavage at 1.25 to 2.5 uM after 24 hrs by immunoblot method. Type of test: cell-based.
The subject of test [25] is MHCC97L. As to the kind of experiment: Cytotoxicity against human MHCC97L cells assessed as decrease in cell viability at 1.25 to 2.5 uM after 24 hrs in presence of autophagy inhibitor bafilomycin A1 by MTT assay. Type of test: functional, cell-based.
The subject of test [26] is PLC-PRF-5. As to the kind of experiment: Induction of apoptosis in human PLC/PRF/5 cells assessed as necrotic cells at 1.25 to 2.5 uM after 24 hrs by annexin V/7-AAD staining-based flow cytometric method (reference value: 1.87%). Type of test: functional.
Test [27] has as its system MHCC97L. As to the kind of experiment: Cytotoxicity against human MHCC97L cells assessed as decrease in cell viability at 1.25 to 2.5 uM after 24 hrs in presence of caspase inhibitor Z-vad-fmk by MTT assay. Type of test: functional, cell-based.
The nature of test [28]: Induction of apoptosis in human MHCC97L cells assessed as late apoptotic cells at 1.25 to 2.5 uM after 24 hrs by annexin V/7-AAD staining-based flow cytometric method (reference value: 3.66%). Type of test: functional.
Test [29] can be described thus: Cell cycle arrest in human MHCC97L cells assessed as accumulation at S phase at 1.25 to 2.5 uM after 24 hrs by propidium iodide staining-based flow cytometric method (reference value: 18.41%). Type of test: functional.
Test [30] has as its target T1, c-Jun N-terminal kinase, JNK (Homo sapiens). Description: Induction of JNK activation in human MHCC97L cells assessed as increase in caspase 3 cleavage at 1.25 to 2.5 uM after 24 hrs by immunoblot method. Type of test: cell-based.
The subject of test [31] is MHCC97L. As to the kind of experiment: Induction of endoplasmic reticulum stress in human MHCC97L cells assessed as upregulation of GRP78 gene expression at 1.25 to 2.5 uM after 24 hrs by qRT-PCR method. Type of test: functional, cell-based.
Test [32] deals with MHCC97L. As to the kind of experiment: Cytotoxicity against human MHCC97L cells assessed as decrease in cell viability at 1.25 to 2.5 uM after 24 hrs in presence of necrosis inhibitor necrostatin-1 by MTT assay. Type of test: functional, cell-based.
For test [33], the system named is MHCC97L. As to the kind of experiment: Induction of endoplasmic reticulum stress in human MHCC97L cells assessed as upregulation of ATF4 gene expression at 1.25 to 2.5 uM after 24 hrs by qRT-PCR method. Type of test: functional, cell-based.
For test [34], the system named is PLC-PRF-5. As to the kind of experiment: Induction of apoptosis in human PLC/PRF/5 cells assessed as early apoptotic cells at 1.25 to 2.5 uM after 24 hrs by annexin V/7-AAD staining-based flow cytometric method (reference value: 0.467%). Type of test: functional.
The subject of test [35] is PLC-PRF-5. As to the kind of experiment: Cytotoxicity against human PLC/PRF/5 cells assessed as decrease in cell viability at 1.25 to 2.5 uM after 24 hrs in presence of autophagy inhibitor bafilomycin A1 by MTT assay. Type of test: functional, cell-based.
For test [36], the system named is MHCC97L. Description: Cytotoxicity against human MHCC97L cells assessed as decrease in cell viability at 1.25 to 2.5 uM after 24 hrs in presence of JNK inhibitor SP600125 by MTT assay. Type of test: functional, cell-based.
Test [37] relates to PLC-PRF-5. Description: Induction of apoptosis in human PLC/PRF/5 cells assessed as viable cells at 1.25 to 2.5 uM after 24 hrs by annexin V/7-AAD staining-based flow cytometric method (reference value: 95%). Type of test: functional.
Test [38] addresses T1, c-Jun N-terminal kinase, JNK (Homo sapiens). Description: Induction of JNK phosphorylation in human MHCC97L cells at 1.25 to 2.5 uM after 24 hrs by immunoblot method. Type of test: cell-based.
Test [39] in a line: Induction of apoptosis in human MHCC97L cells assessed as viable cells at 1.25 to 2.5 uM after 24 hrs by annexin V/7-AAD staining-based flow cytometric method (reference value: 93.4%). Type of test: functional.
The test system of test [40] is MHCC97L. As to the kind of experiment: Cytotoxicity against human MHCC97L cells assessed as decrease in cell viability at 1.25 to 2.5 uM after 24 hrs in presence of endoplasmic reticulum stress reliever TUDCA by MTT assay. Type of test: functional, cell-based.

Each structure is given as a SMILES string. Activity calls are given as the source filed them. No cut-off for these calls is given here.

On to `COc1cc(NC(=O)c2ccco2)c2cc1Oc1ccc(cc1)C[C@H]1c3cc(c(OC)cc3CCN1C)Oc1c(OC)c(OC)cc3c1[C@H](C2)N(C)CC3`, for which the result in test [1], in [18], in [22], in test [27], in test [36] and in test [40] was inactive. In addition, the outcome in [2], in [7], in [9], in [10], in test [12] and in test [17] was Active. The result in test [24], in [25], in [30], in test [31], in test [32] and in test [33] was Active. The outcome in test [35] and in [38] was Active. The Activity in [3] came out at 67.11%; in test [11], 18.29%; in test [13], 68.52%; in test [14], 42.8%; in test [16], 21.55%; in [19], 4.18%. Further, the Activity in [20] is recorded as 17.78%; in test [21], 9.76%; in test [26], 3.9%; in test [28], 39.6%; in [29] it was 21.59%; in test [34] it was 16.9%. Further, the Activity in test [37] is reported as 36.4%; in test [39] it was 46.4%. Besides, the “Ratio IC50” value turned out to be 15.8 in test [4], 30.3 in test [5], 15.8 in [6] and 30.3 in [15]. Besides, the figures for the IC50 in [8] and in test [23] were 1.23 µM and 0.89 µM, respectively.

As to `COc1cc(NC(=O)c2ccccc2)c2cc1Oc1ccc(cc1)C[C@H]1c3cc(c(OC)cc3CCN1C)Oc1c(OC)c(OC)cc3c1[C@H](C2)N(C)CC3`, the concentration for half-maximal inhibition (IC50) in test [8] came to 9.16 µM; in test [23], 7.8 µM.

`C=CC(=O)Nc1cc(OC)c2cc1C[C@H]1c3c(cc(OC)c(OC)c3Oc3cc4c(cc3OC)CCN(C)[C@H]4Cc3ccc(cc3)O2)CCN1C`: the figures for the IC50 in [8] and in test [23] were 10.7 µM and 10.4 µM, respectively.

Consider `COc1cc(NC(=O)C2CC2)c2cc1Oc1ccc(cc1)C[C@H]1c3cc(c(OC)cc3CCN1C)Oc1c(OC)c(OC)cc3c1[C@H](C2)N(C)CC3`, for which the 50% inhibitory concentration (IC50) was found to be 6.45 µM in [8] and 7.68 µM in [23].

Turning to `COc1cc(NC(=O)CCCCl)c2cc1Oc1ccc(cc1)C[C@H]1c3cc(c(OC)cc3CCN1C)Oc1c(OC)c(OC)cc3c1[C@H](C2)N(C)CC3`, the half-maximal inhibitory concentration (IC50) in [8] was 7.22 µM; in [23], 9.76 µM.
